Holding throughout (type): cell-based
Assay [1] has as its system primary glioblastoma cell line 612. Nature of the assay: Cell count of primary glioblastoma line 612. As for the experimental part:
FIG. 7A depicts the results of primary glioblastoma lines 612 and GS1049 after incubation for 48 h with Ac4Glc2Bz followed by cell counting and normalization to untreated controls. The data is log transformed to easily determine IC50 values. FIG. 7B and FIG. 7C depict the measurement of proliferation of the primary glioblastoma lines after 48 h incubation with Ac4Glc2Bz using a MTT assay.
Furthermore, cell morphologies were grossly altered as concentrations of Ac4Glc2Bz were increased, which likely indicated severe metabolic stress, induction of apoptosis, and possibly altered adhesion.
Cells were incubated at a range of concentrations of the UAP inhibitors (typically at 0, 10, 25, 50, 100, and 150 μM) and the number of cells were quantified, typically by automated counting (e.g., with a Coulter Counter Z2 instrument) after 1, 2, 3, or 5 days of exposure.

Assay [2] concerns YAP/TAZ. As to the kind of experiment: Western blot of YAP/TAZ. As for the experimental part: FIGS. 10A and 10B show the western blot results from primary glioblastoma cell lines 612 (FIG. 10A) (these cells were a kind gift of Dr. Quinones-Hinojosa (School of Medicine, Johns Hopkins University), who obtained the cells from cancer patients) and GS1049 (FIG. 10B) that were incubated for 48 h with Ac4Glc2Bz at the indicated concentrations. Each cell line was probed for the proteins Yes Associated Protein (YAP), transcriptional coactivator with PDZ-binding motif (TAZ), phosphorylated Yes Associated Protein (p-YAP), and Glyceraldehyde 3-phosphate dehydrogenase (GAPDH control). […] YAP/TAZ are two key mediators that act to […] the Hippo pathway, which helps to promote oncogenesis, metastasis, and cancer cell survival in circulation. Until now, there were no known small molecule pharmacological agents capable of decreasing YAP/TAZ expression. These studies helped illustrate the extraordinarily powerful potential of UAP1/2 inhibitors as truly disease modifying candidates, especially in cancer.
In addition, in FIG. 22B, YAP western blot results from Ac4Glc2Bz cells were obtained where shRNA knockdown of UAP1 was performed using lentiviral methods in PANC-1 cells (n=3). Similar to above, UAP1 in PANC-1 cells was knocked down using lentiviral vectors followed by 1 week selection using puromycin. […]
A general note: Immunoblotting shows a protein as a band on a membrane.

In assay [3] the test system is O-GlcNAc protein modification. Nature of the assay: Western blot of O-GlcNAcylation with CTD110.6. The note with it: 612, GS1049, SW1990 and PANC-1 cells, 40 μM or 60 μM, 48 h. Here is the method: Exemplary CTD110.6 protein expression results were obtained for 612 cells (FIG. 17A); GS1049 cells (FIG. 17B); SE1990 cells (FIG. 17C); and PANC-1 cells (FIG. 17D) with either 40 μM or 60 μM Ac4Glc2Bz.
For example, as shown in FIG. 17A-17D, Ac4Glc2Bz could change O-GlcNAcylation in a dose-dependent manner in each cell of 612 cells (FIG. 17A); GS1049 (FIG. 17B); SW1990 (FIG. 17C) and PANC-1 (FIG. 17D). In particular, the band intensities of CTD110.6 (anti-O-GlcNAc antibody) from each treated cell decreased as the concentrations of Ac4Glc2Bz treatment were increased. 3×10^5 cells were plated in 6-well plates, with 2 wells per condition tested as indicated in FIG. 17A-D. After 48 h, proteins were collected after freezing for 15 minutes at −80° C. using extraction buffer consisting of 20 mM TrisHCl, pH 7.5, 1% v/v NP-40, 2 mM EDTA, 0.1 mM phenylmethylsulfonyl fluoride, phosphatase inhibitor cocktails 2 and 3 (1×) (SIGMA), ThiametG (10 nM) (Cayman Chemical), β-hexosaminidase inhibitor (5 μM) (Millipore), sodium fluoride (1 mM), and β-glycerophosphate (1 mM). The lysed cells were scraped, collected, and incubated on ice for 20 minutes while vortexing for 5-10 s ever 5 minutes. Samples were sonicated for 5 seconds and then centrifuged at 14,000 RPM for 20 minutes at 4° C. The supernatant was removed, normalized to 1 mg/mL, and 20 μg was loaded onto a 7.5% SDS-PAGE gel. […]

Assay [4] relates to N-glycans of SW1990 cells. Nature of the assay: Mass spectrometry of cell surface N-glycans in SW1990 cells. The note with it: 100 μM. Here is the method: FIGS. 18A-18B present mass spectrometry results showing levels of N-glycans (lower molecular weight glycans) and high molecular weight glycans following treatments with Ac4Glc2Bz (100 μM) in SW1990 cells.
(a) Cell surface N-Glycans. After two days of incubation with analog (a length of time sufficient to observe maximal “metabolic glycoengineering” effects (Biotechnol Bioeng 85, 394-405 (2004); Biotechnol Bioeng 109, 992-1006 (2012); Mol Cell Proteomics, 10.1074/mcp.M1112.017558 (2012); Glycobiology 19, 1382-1401 (2009); Nature Protocols 2, 1585-1602 (2007)), cells treated with PNGaseF, N-glycans were collected, and analyzed by following a recently developed protocol that optimizes sialic acid detection and quantification (Anal Chem 85, 3606-3613 (2013)). As previously developed, automated methods were used to analyze mass spectroscopy data to detect phenyl-modified sugars in glycan structures. This analysis was valuable to monitor whether any phenyl-modified analog was biosynthetically processed (instead or in addition to inhibiting UAP) and incorporated into cellular glycans.
For example, as shown in FIGS. 18A-18B, SW1990 cells were treated with Ac4Glc2Bz (100 μM), and the cell extracts were analyzed by mass spectrometry.

SMILES strings stand for the structures. Entries after “also recorded” stand apart in the source; their conditions may differ.

For orientation: IC50 means the concentration at which inhibition is half-maximal.

On to `CC(=O)OCC1OC(OC(C)=O)[C@@H](NC(=O)c2ccccc2)[C@@H](OC(C)=O)[C@@H]1OC(C)=O` (stereo partly shown) [Ac4Glc2Bz], for which, in assay [1] (612 cells treated for 48 hours, FIG. 11), the “cell densities under a microscope” value is reported as “striking reduction in cell densities in a dose dependent manner”. Further, in assay [1] (48 h incubation, cell counting normalized to untreated controls, read-out: Estimated IC50 values, 612), the concentration for half-maximal inhibition (IC50) is 36.2 ± 1.1 µM. Further, the “protein expression of YAP/GAPDH” value in assay [2] (as described in Example 5) is listed as “reduce protein expression of YAP/GAPDH in a dose-dependent manner”. Also, the “protein expression of YAP/TAZ” value in assay [2] (primary glioblastoma cell lines 612 and GS1049, 48 h) is recorded as “virtually abolished”. Further, the “O-GlcNAcylation, band intensities of CTD110.6” value in assay [3] is reported as “decreased; also recorded: changed”. In assay [4], the “amplitude of peaks for N-glycans (lower molecular weight glycans)” value is on record as “not significantly reduced” and the “peaks for high molecular weight glycans” value was “quantitative changes were identified”.
